# Data reported in patent publication US6492180B2, “Non-invasive transdermal detection of analytes” (priority 1998, dated 2002).
# Key:
# [1] = In vitro 3H-cocaine transport through swine skin, diffusion cells; assay type: in vitro ADME; settings: donor 20 μCi/ml, receptor 50% NMP:H2O
# Description: The receptor solution (50% NMP:H2O) was loaded in the lower chamber. Samples from the lower chamber (100 μl) were taken every hour and counted.
# [2] = test system: rats; test: Detection of 14C-caffeine administered to rats: tissue radioactivity and hydrogel extraction; assay type: in vivo, rat; settings: 2.5 hours
# Description: Rats were shaven and fasted for 24 hours prior to caffeine administration by intraperitoneal injection of ^14C labeled caffeine to the 600 gram rats. Each animal received approximately 16.7 μCi of ^14C caffeine via intraperitoneal injection of 0.5 mL of ethanol and water.
# A 50% NMP:50% water-Pluronic® F127 hydrogel was applied to 2.4 cm diameter plastic disks. The disks were attached to a jacket which was affixed to the backs of the rats. The disks were removed after 2.5 hours. The gel was removed and counted. The rats were sacrificed and blood and tissue were removed for analysis from each animal. The tissue samples were placed in liquid scintillation vials with 1.5 mL of Soluene® (Packard Instruments, Downers Grove, Ill.) in order to dissolve the tissues for valid liquid scintillation counting.
# [3] = test system: rats; test: In vivo extraction of lead through the skin of lead-fed rats with NMP hydrogel; blood lead; parameters: species or system rat; settings: Sprague Dawley rats, 750-1,000 ppm lead acetate in water supply, tail vein blood, for several weeks
# Description: Determinations of blood lead (Pb) concentrations were conducted by obtaining a blood sample from the tail vein of the animals and analyzing them using an ESA brand LeadCare® Analyzer (Chelmsford, Mass.).
# At that time, a clear hydrogel formulation containing 1 gram of the copolymer Pluronic® F127 (BASP), and 2.0 mL of deionized water and 2.0 mL of N-methyl pyrrolidone (Pharmasolve®, ISP, Wayne, N.J.) was prepared. Approximately 1.2 grams of hydrogel was applied to a 2.4 cm diameter polypropylene plastic disk. The disks were attached to a jacket which was affixed to the backs of the rats. The disks were removed after 1 hour.
# [4] = rat, about 16.7 μCi 14C caffeine i.p.
smiles,measurement,setting,value
"COC(=O)[C@H]1[C@@H](OC(=O)c2ccccc2)C[C@@H]2CC[C@H]1N2C [^3H-cocaine, cocaine]",flux through pig skin in vitro,[1],0.00317 μg/cm^2/hr
"Cn1c(=O)c2c(ncn2C)n(C)c1=O [^14C caffeine, caffeine]","Radioactivity (mean dpm ± SD), NMP-Pluronic F127 Hydrogel",[2]; extracted through rat skin into 50% NMP:50% water-Pluronic F127 hydrogel,58.82 dpm/cm^2/hr
same,"Radioactivity (mean dpm ± SD), Blood",[2]; [4],87.24 dpm/μL
same,"Radioactivity (mean dpm ± SD), Muscle",[2]; [4],64.30 ± 8.73 dpm/mg
same,"Radioactivity (mean dpm ± SD), Skin",[2]; [4],52.15 ± 0.07 dpm/mg
CC(=O)[O-].CC(=O)[O-].[Pb+2] [lead acetate],blood lead levels,[3],50 to 60 µg/dL
